Each structure is given as a SMILES string.

One test deals with IL-1β release from THP-1 cells. Briefly: IL-1β Release Assay (Alternate Method), THP-1 cells. The conditions noted are these: Homo sapiens, THP-1, read-out: IL-1β % inhibition. The format is cell-based, human. In outline:
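IL-1β release, measured by ELISA, follows 45 min BzATP (250 uM final) stimulation of THP-1 cells given 30 min compound pretreatment. Cells were first primed 16 h with LPS and IFN-γ (100 ng/mL each), then 2 h with fresh LPS; inhibition expressed in percent after background correction.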
For orientation: inhibition means how much of the control response was suppressed. Consider `O=C(Nc1ncnc2c1CCN(Cc1ccccc1)C2)C12CC3CC(CC(C3)C1)C2` [Compound 334, Adamantane-1-carboxylic acid(7-benzyl-5,6,7,8-tetrahydro-pyrido[3,4-d]pyrimidin-4-yl)-amide], for which the inhibition at 0.3 µM was 50 to 75%.

Staying with this test, now noted: at 0.3 μM; THP-1 cells.
With `Cc1cc(C(=O)N2CCc3c(ncnc3NC(=O)CC34CC5CC(CC(C5)C3)C4)C2)n(C)n1` [Compound 285], the IL-1β % inhibition entry is given as “+ (compound exhibited 0-25% inhibition at 0.3 μM)”.
The same measure, in the same setting: the result for `O=C(CC12CC3CC(CC(C3)C1)C2)Nc1ncnc2c1CCN(C(=O)c1cnn(-c3ccccc3)c1C(F)(F)F)C2` [Compound 286] reads “+++ (compound exhibited 50-75% inhibition at 0.3 μM)”.
Still for that read-out and setting: for `Cc1c(C(=O)N2CCc3c(ncnc3NC(=O)CC34CC5CC(CC(C5)C3)C4)C2)cnn1-c1ccccc1` [Compound 288] the value was “+ (compound exhibited 0-25% inhibition at 0.3 μM)”; for `O=C(CC12CC3CC(CC(C3)C1)C2)Nc1ncnc2c1CCN(C(=O)c1ccc3ccccc3c1)C2` [Compound 290], “++++ (compound exhibited 75% or greater inhibition at 0.3 μM)”.
The same measure, in the same setting: for `Cc1ccc(C(=O)N2CCc3c(ncnc3NC(=O)CC34CC5CC(CC(C5)C3)C4)C2)cc1` [Compound 291] the value was “++++ (compound exhibited 75% or greater inhibition at 0.3 μM)”.
On to `COc1ccccc1C(=O)N1CCc2c(ncnc2NC(=O)CC23CC4CC(CC(C4)C2)C3)C1` [Compound 292], for which the IL-1β % inhibition result is “+++ (compound exhibited 50-75% inhibition at 0.3 μM)”.
As to `Cc1cc(C(=O)N2CCc3c(ncnc3NC(=O)CC34CC5CC(CC(C5)C3)C4)C2)c(C)o1` [Compound 293], the IL-1β % inhibition entry is “+++ (compound exhibited 50-75% inhibition at 0.3 μM)”.
As for `O=C(CC12CC3CC(CC(C3)C1)C2)Nc1ncnc2c1CCN(C(=O)c1ccccc1Cl)C2` [Compound 294], the IL-1β % inhibition entry is given as “+++ (compound exhibited 50-75% inhibition at 0.3 μM)”.
The same measure, in the same setting: the result for `CC(=O)N1CCC(C(=O)N2CCc3c(ncnc3NC(=O)CC34CC5CC(CC(C5)C3)C4)C2)CC1` [Compound 295] reads “+ (compound exhibited 0-25% inhibition at 0.3 μM)”; that for `O=C(CC12CC3CC(CC(C3)C1)C2)Nc1ncnc2c1CCN(C(=O)c1ccno1)C2` [Compound 296], “+++ (compound exhibited 50-75% inhibition at 0.3 μM)”.
On the same count and under the same terms, the result for `Cc1noc(C)c1C(=O)N1CCc2c(ncnc2NC(=O)CC23CC4CC(CC(C4)C2)C3)C1` [Compound 297] reads “+ (compound exhibited 0-25% inhibition at 0.3 μM)”.
On the same count and under the same terms, for `O=C(CC12CC3CC(CC(C3)C1)C2)Nc1ncnc2c1CCN(C(=O)c1ccnc(Cl)c1)C2` [Compound 298] the value was “++++ (compound exhibited 75% or greater inhibition at 0.3 μM)”; for `Cc1oncc1C(=O)N1CCc2c(ncnc2NC(=O)CC23CC4CC(CC(C4)C2)C3)C1` [Compound 299], “+ (compound exhibited 0-25% inhibition at 0.3 μM)”.
Consider `Cc1cc(C(=O)N2CCc3c(ncnc3NC(=O)CC34CC5CC(CC(C5)C3)C4)C2)n(C(C)(C)C)n1` [Compound 300], for which the IL-1β % inhibition entry was “+ (compound exhibited 0-25% inhibition at 0.3 μM)”.
Same read-out and setting: for `CC(C)(C)c1ccc(C(=O)N2CCc3c(ncnc3NC(=O)CC34CC5CC(CC(C5)C3)C4)C2)cc1` [Compound 301] the value was “++++ (compound exhibited 75% or greater inhibition at 0.3 μM)”.
Still for that read-out and setting: the result for `O=C(CC12CC3CC(CC(C3)C1)C2)Nc1ncnc2c1CCN(C(=O)Cc1ccccc1Br)C2` [Compound 302] reads “+++ (compound exhibited 50-75% inhibition at 0.3 μM)”.
The same measure, in the same setting: the result for `O=C(CC12CC3CC(CC(C3)C1)C2)Nc1ncnc2c1CCN(C(=O)c1ccc3ccccc3n1)C2` [Compound 303] reads “+++ (compound exhibited 50-75% inhibition at 0.3 μM)”; that for `O=C(CC12CC3CC(CC(C3)C1)C2)Nc1ncnc2c1CCN(C(=O)c1ccncc1)C2` [Compound 304], “+ (compound exhibited 0-25% inhibition at 0.3 μM)”.
On to `O=C(CC12CC3CC(CC(C3)C1)C2)Nc1ncnc2c1CCN(C(=O)C1CCCN1C(=O)C(F)(F)F)C2` (stereo not drawn) [Compound 306], for which the IL-1β % inhibition entry is given as “+ (compound exhibited 0-25% inhibition at 0.3 μM)”.
Turning to `COCCC(=O)N1CCc2c(ncnc2NC(=O)CC23CC4CC(CC(C4)C2)C3)C1` [Compound 307], the IL-1β % inhibition entry is “++ (compound exhibited 25-50% inhibition at 0.3 μM)”.
Still for that read-out and setting: the result for `O=C(CC12CC3CC(CC(C3)C1)C2)Nc1ncnc2c1CCN(C(=O)c1ccc3c(c1)CCO3)C2` [Compound 309] reads “++++ (compound exhibited 75% or greater inhibition at 0.3 μM)”; that for `COc1ccc(C(=O)N2CCc3c(ncnc3NC(=O)CC34CC5CC(CC(C5)C3)C4)C2)cc1F` [Compound 310], “+++ (compound exhibited 50-75% inhibition at 0.3 μM)”; that for `COc1ccc(C(=O)N2CCc3c(ncnc3NC(=O)CC34CC5CC(CC(C5)C3)C4)C2)cc1OC` [Compound 312], “+ (compound exhibited 0-25% inhibition at 0.3 μM)”.
The same measure, in the same setting: for `O=C(CC12CC3CC(CC(C3)C1)C2)Nc1ncnc2c1CCN(C(=O)C1COc3ccccc3C1)C2` (stereo not drawn) [Compound 313] the value was “++++ (compound exhibited 75% or greater inhibition at 0.3 μM)”; for `O=C(NCC12CC3CC(CC(C3)C1)C2)c1ncnc2c1CCN(Cc1cccc(F)c1)C2` [Compound 316], “+ (compound exhibited 0-25% inhibition at 0.3 μM)”.
On the same count and under the same terms, the result for `CC(c1ccc2c(c1)OCCO2)N1CCc2c(ncnc2NC(=O)CC23CC4CC(CC(C4)C2)C3)C1` (stereo not drawn) [Compound 317] reads “+ (compound exhibited 0-25% inhibition at 0.3 μM)”; that for `O=C(CC12CC3CC(CC(C3)C1)C2)Nc1ncnc2c1CCN(Cc1ccc3c(c1)Cc1ccccc1-3)C2` [Compound 318], “+ (compound exhibited 0-25% inhibition at 0.3 μM)”; that for `O=C(CC12CC3CC(CC(C3)C1)C2)Nc1ncnc2c1CCN(Cc1ccc(Cl)cc1Cl)C2` [Compound 319], “+ (compound exhibited 0-25% inhibition at 0.3 μM)”.
`Cc1ccc(CN2CCc3c(ncnc3NC(=O)CC34CC5CC(CC(C5)C3)C4)C2)c(C)c1` [Compound 320]: the IL-1β % inhibition result is on record as “+ (compound exhibited 0-25% inhibition at 0.3 μM)”.
The same measure, in the same setting: for `O=C(CC12CC3CC(CC(C3)C1)C2)Nc1ncnc2c1CCN(Cc1ccc3c(c1)OCO3)C2` [Compound 321] the value was “++++ (compound exhibited 75% or greater inhibition at 0.3 μM)”; for `O=C(CC12CC3CC(CC(C3)C1)C2)Nc1ncnc2c1CCN(Cc1ccc(F)c(F)c1)C2` [Compound 322], “+ (compound exhibited 0-25% inhibition at 0.3 μM)”; for `O=C(CC12CC3CC(CC(C3)C1)C2)Nc1ncnc2c1CCN(Cc1ccc(F)c(Cl)c1)C2` [Compound 323], “+ (compound exhibited 0-25% inhibition at 0.3 μM)”.
Still for that read-out and setting: the result for `COc1ccc(CN2CCc3c(ncnc3NC(=O)CC34CC5CC(CC(C5)C3)C4)C2)cc1Cl` [Compound 324] reads “+ (compound exhibited 0-25% inhibition at 0.3 μM)”; that for `O=C(CC12CC3CC(CC(C3)C1)C2)Nc1ncnc2c1CCN(Cc1ccc(Cl)c(C(F)(F)F)c1)C2` [Compound 325], “+ (compound exhibited 0-25% inhibition at 0.3 μM)”.
On the same count and under the same terms, for `O=C(CC12CC3CC(CC(C3)C1)C2)Nc1ncnc2c1CCN(Cc1ccc(F)cc1Cl)C2` [Compound 326] the value was “++ (compound exhibited 25-50% inhibition at 0.3 μM)”.
On to `O=C(CC12CC3CC(CC(C3)C1)C2)Nc1ncnc2c1CCN(Cc1ccc(C(F)(F)F)cc1C(F)(F)F)C2` [Compound 327], for which the IL-1β % inhibition entry is “+ (compound exhibited 0-25% inhibition at 0.3 μM)”.
Still for that read-out and setting: the result for `O=C(CC12CC3CC(CC(C3)C1)C2)Nc1ncnc2c1CCN(Cc1ccc(Cl)cc1F)C2` [Compound 328] reads “+++ (compound exhibited 50-75% inhibition at 0.3 μM)”.
On the same count and under the same terms, for `O=C(CC12CC3CC(CC(C3)C1)C2)Nc1ncnc2c1CCN(Cc1ccc(Cl)c(F)c1)C2` [Compound 329] the value was “+++ (compound exhibited 50-75% inhibition at 0.3 μM)”; for `COc1cc(OCc2ccccc2)ccc1CN1CCc2c(ncnc2NC(=O)CC23CC4CC(CC(C4)C2)C3)C1` [Compound 330], “+++ (compound exhibited 50-75% inhibition at 0.3 μM)”; for `O=C(CC12CC3CC(CC(C3)C1)C2)Nc1ncnc2c1CCN(Cc1ccc3cc[nH]c3c1)C2` [Compound 332], “+++ (compound exhibited 50-75% inhibition at 0.3 μM)”.
Same read-out and setting: for `O=C(CC12CC3CC(CC(C3)C1)C2)Nc1ncnc2c1CCN(Cc1ccc3c(c1)OCCCO3)C2` [Compound 333] the value was “+++ (compound exhibited 50-75% inhibition at 0.3 μM)”; for `COc1cccc(CN2CCc3c(ncnc3C(=O)NCC34CC5CC(CC(C5)C3)C4)C2)c1` [Compound 335], “++ (compound exhibited 25-50% inhibition at 0.3 μM)”.
On to `Cc1ccccc1CN1CCc2c(ncnc2C(=O)NCC23CC4CC(CC(C4)C2)C3)C1` [Compound 336], for which the IL-1β % inhibition entry is listed as “++++ (compound exhibited 75% or greater inhibition at 0.3 μM)”.
The same measure, in the same setting: the result for `O=C(NCC12CC3CC(CC(C3)C1)C2)c1ncnc2c1CCN(Cc1ccccc1Cl)C2` [Compound 337] reads “++ (compound exhibited 25-50% inhibition at 0.3 μM)”; that for `O=C(NCC12CC3CC(CC(C3)C1)C2)c1ncnc2c1CCN(Cc1ccc(F)cc1)C2` [Compound 338], “++++ (compound exhibited 75% or greater inhibition at 0.3 μM)”.
As to `CC(C)(C(=O)Nc1ncnc2c1CCN(Cc1ccccc1)C2)C12CC3CC(CC(C3)C1)C2` [Compound 339], the IL-1β % inhibition result was “+ (compound exhibited 0-25% inhibition at 0.3 μM)”.
Same read-out and setting: for `O=C(NCC12CC3CC(CC(C3)C1)C2)c1ncnc2c1CCN(Cc1ccc3c(c1)OCO3)C2` [Compound 340] the value was “+++ (compound exhibited 50-75% inhibition at 0.3 μM)”.

(Values after patent publication US7297700B2, “Bicycloheteroaryl compounds as P2X7 modulators and uses thereof” (Renovis, Inc., priority 2005, dated 2007).)
